Bounds are passed on as bounds.

We go through 110 compounds from a melting point compilation (Tetko et al.).

One may read the melting point as the temperature of the solid-liquid transition. `O=[N+]([O-])c1cccnc1Oc1ccc(Cl)cc1` registered a melting point of 89 to 90 °C.

Compound `ClCc1noc(-c2ccccc2)n1` returned a melting point of 64 °C. The value for `CC(=O)c1cc(F)cc(F)c1` was 39 °C; that for `CC(C)(OO)c1ccccc1` was -9 °C; that for `OCC1OC(SCCc2ccccc2)C(O)C(O)C1O` (stereo not given) was 100 °C. The value for `Cc1cccc(NC(=O)C(C(F)(F)F)C(F)(F)F)c1` was 175 °C; that for `COc1cc(/C=C/c2cc(C)cc(OC)c2O)ccc1O` was 124 °C; that for `O=C(CNc1cccc(NCC(=O)c2ccccc2)c1)c1ccccc1` was 164 °C. The value for `FC(F)CBr` was -75 °C; that for `CC1(C)OC(C)(C(C)(C)O)CCC1C(=O)O` (stereo not given) was 111 °C. Compound `Cc1ccc(C(C=O)C=O)cc1` showed a melting point of 128 to 134 °C.

On to `COc1cccc(OC)c1/C=N/n1c(S)nnc1C(F)(F)F`, for which the melting point amounted to 178 °C. The value for `Nc1ccc(C/C(=N/O)c2ccc(N)cc2)cc1` was 146 to 147 °C; that for `Nc1ccc(N=Nc2ccc([N+]([O-])=Nc3ccc(N)cc3)cc2)cc1` was 247 °C. In the case of `Cc1nn(C)c(C)c1C=O` it was 81.5 °C.

`Cc1cc(C)cc(CC#N)c1` showed a melting point of 44 °C. The value for `O=C=Nc1cccc2ccccc12` was 4 °C. In the case of `CCCOc1ccc2c(c1)C(c1ccc(OC)cc1OCC(=O)O)C(C(=O)O)C2c1ccc2c(c1)OCO2` (stereo not given) it was 254 °C; in that of `CSc1cc(-c2ccc(F)cc2)n[nH]1`, 101 to 103 °C.

Consider `CCCCCCCCCCC1CCCC1`, for which the melting point is -22 °C. In the case of `O=C(c1ccccc1)C1SC(=S)N(c2ccccc2)C1=O` (stereo not given) it was 159 °C; in that of `Cc1ccc(-c2ccc(/C=C/C(=O)c3ccc(C)o3)o2)cc1`, 143 °C; in that of `CC1=C(C(=O)OC(C)(C)C)C(c2ccc3c(c2)OCO3)NC(=O)N1` (stereo not given), 210 °C.

Consider `CCOC(=O)N1COCc2c1ccc1cc3ccc4c(c3nc21)COCN4C(=O)OCC`, for which the melting point is 195 °C. In the case of `C#CC=CC=C` it was -81 °C; in that of `COC(=O)[C@]1(O)CC2=C(c3c1cc(OC)nc3Cl)N(C)CCC2`, 153 °C; in that of `O=C(O)c1cc(Br)cnc1Br`, 184 to 185 °C. In the case of `O=C(O)CCc1ccccc1F` it was 76 to 78 °C; in that of `COC(=O)c1cc(Oc2ccc(Cl)cc2Cl)ccc1[N+](=O)[O-]`, 87 °C; in that of `CC(=O)C(Cc1ccccc1)C(=O)OC1CC(C)CCC1C(C)C` (stereo not given), 68 °C. With `O=C(O)c1cc(-c2ccccc2)n[nH]1`, the melting point came to 250 °C.

`CCC12CC3CC(C1)CC(C(=O)O)(C3)C2` yielded a melting point of 94 to 96 °C. In the case of `O=[N+]([O-])c1ccc(Br)cc1C(F)(F)F` it was 34 °C.

As to `CC(=O)c1cc(Br)ccc1O`, the melting point was 58 to 61 °C. The value for `COc1ccc(-c2cc3nc(-c4cccs4)cc(C(F)(F)F)n3n2)cc1` was 201 °C; that for `FC(Cl)(Cl)C(Cl)(Cl)Cl` was 101 °C.

As for `Nc1ncnc2c1cnn2CCO`, the melting point turned out to be 218 °C.

In turn, `Cn1c([N+](=O)[O-])cnc1C=Cc1ccnc(N)n1` registered a melting point of 234 °C.

Take `Nc1cccc(F)c1C(=O)O`: the melting point fell in the range of 170 to 172 °C. As to `Nc1nc(O)cc(Cl)n1`, the melting point worked out at 262 °C. The value for `CC(=O)NC(N)=S` was 165 °C. `Nc1ccc(Br)c(Cl)c1` came in with a melting point of 74 °C. The value for `CC1(C)C(C=C(Cl)Cl)C1C(=O)OCc1cccc(Oc2ccccc2)c1` (stereo not given) was 34.5 °C.

`Cc1nc(-c2cccc(N)c2)no1`: the melting point lay in the range of 95 to 96 °C. The value for `O=[N+]([O-])c1ccc(-c2nnc3n2CN(c2ccccc2[N+](=O)[O-])CS3)cc1` was 183 to 185 °C. In the case of `Nc1nn2c(C(F)(F)F)cc(=O)[nH]c2c1/N=N/c1ccc(O)cc1` it was 268 °C; in that of `C1=NCC(c2ccc(C3CN=CC=N3)cc2)N=C1` (stereo not given), 262 °C; in that of `Cc1ccc(Br)cc1O`, 79 °C. The value for `COc1cc(-c2nnc3sc(-c4cccnc4)nn23)cc(OC)c1OC` was 175 °C; that for `CC1(NC(=O)c2ccccc2)COCOC1=O` (racemic) was 154 to 159 °C; that for `CCCCCCCCC(Br)C(=O)O` (stereo not given) was 4 °C.

`OCc1csc2ccccc12` returned a melting point of 49 to 50 °C. In the case of `C1=CC2(CC2)C2C1C1C=CC2C12CC2` (stereo not given) it was 45 °C; in that of `Cc1c(C(=O)Cl)cnn1-c1ccccc1`, 147 to 148 °C; in that of `O=[N+]([O-])c1ccc(S(F)(F)(F)(F)F)cc1`, 38 °C.

Regarding `O=[N+]([O-])c1cc(C=NNc2ccccc2)ccc1C=NNc1ccccc1`, the melting point stood at 185 °C.

`O=C(c1cccc([N+](=O)[O-])c1)c1nn(-c2ccccc2)/c(=N\Nc2ccccc2)s1` had a melting point of 184 °C.

`CCSC1=NN=C(SCC)NN1`: the melting point fell in the range of 123 to 125 °C. In the case of `CC(C)CS` it was -145 °C. The value for `CC(C(=O)O)c1ccc(Cl)cc1` (stereo not given) was 57 °C; that for `Cc1cc(Cl)ccc1Cl` was 5 °C; that for `CCCC(O)CC(C)C` (stereo not given) was -81 °C. The value for `CCOC(=O)c1cnc2cc(-c3cccs3)nn2c1C` was 151 to 153 °C. Take `CN(CC(=O)O)C(=O)COC(=O)c1ccccc1`: the melting point was 106 °C. The value for `C=CC(=O)OCC(CC)CC` was -70 °C.

As to `Cc1cccc(P(c2cccc(C)c2)c2cccc(C)c2)c1`, the melting point lay within 100 to 103 °C.

On to `CCCCN(CCO)CCCC`, for which the melting point was -75 °C.

On to `COc1ccc(N=C=S)c(OC)c1`, for which the melting point worked out at 52 °C. For the compound `C=CCNC(=S)NN`, the melting point lay within 93 to 96 °C. In the case of `COC(=O)C(C)N(C(=O)c1ccccc1)c1ccc(F)c(Cl)c1` (stereo not given) it was 85 °C; in that of `CCCCCCN1CCCC1=O`, 4 °C. Take `O=C(NCCCl)c1ccccc1`: the melting point was determined as 103 °C.

Compound `CCC(C)n1c(=O)[nH]c(C)c(Br)c1=O` (stereo not given) gave a melting point of 158 °C.

`O=C1c2cc3ccccc3cc2-c2ccc3ccccc3c21` gave a melting point of 214 °C.

Turning to `COc1c(C(C)(C)C(C)C)c2nc3ccccc3nc2c2ccccc12`, the melting point turned out to be 88.6 °C.

Turning to `CCOc1nc(F)cc2nc(S(=O)(=O)Nc3c(Cl)cccc3C(=O)OC)nn12`, the melting point turned out to be 217 °C. The value for `CC1(C)OC(=O)C2(Cc3ccccc3C2)C(=O)O1` was 158 °C; that for `CC(=O)c1nn(-c2ccccc2[N+](=O)[O-])c(=NC(=O)c2ccccc2)s1` was 204 °C. The value for `O=C(Nc1ccccc1)N(C(=O)C1Cc2ccccc21)c1ccccc1` (stereo not given) was 158 °C; that for `NC(=S)c1ccc(F)cc1F` was 131 °C; that for `CCCCCCCCCCCCCCCCCC(=O)OCCOC(=O)CCCCCCCCCCCCCCCCC` was 79 °C. In the case of `O=Cc1ccc(Oc2cccnc2)o1` it was 72 to 73 °C. For `O=C(Cl)c1cc(-c2ccccc2)on1`, the melting point was 86 to 88 °C. The value for `O=[N+]([O-])c1nc[nH]n1` was 212 to 214 °C. As to `Cc1ccc(OCCBr)cc1`, the melting point is 37 to 38 °C.

For `CC1C(=O)C23C(O)CC4C(C)(CO)CCCC4(CO)C2C(O)CC1C3O` (stereo not given), the melting point is 266 °C.

In turn, `Nc1cccc(I)c1` showed a melting point of 33 °C. In the case of `FC(F)=C(Cl)Cl` it was -116 °C.

Compound `Cn1c(=O)c2c(ncn2CC2OCCO2)n(C)c1=O` displayed a melting point of 144 °C.

Regarding `CCOC(=O)c1c[nH]cc1C`, the melting point is 74 °C. `C=C1C(=O)C23C4CC5C(C)(C)CCC(OC(C)=O)C5(C(=O)O4)C2C(OC(C)=O)CC1C3O` (stereo not given) displayed a melting point of 238 °C. Compound `Cc1ccc(S(=O)(=O)NC(Cc2ccccc2)C(=O)CCl)cc1` (stereo not given) showed a melting point of 105 to 109 °C. As to `CC(C)(C)c1ccc(C2CCC3(CC2)Cc2ccc(OS(=O)(=O)C(F)(F)F)cc2C3)cc1` (stereo not given), the melting point lay in the range of 122 to 124 °C. `O=[N+]([O-])c1ccc2[nH]c(=S)[nH]c2c1` registered a melting point of 275 °C. `O=C1CC2OCC=C3CN4CCC56c7ccccc7N1C5C2C3CC46` (stereo not given) had a melting point of 287 °C.

Consider `CC1=C(CCO)SC2=Nc3nc(C)ncc3CN21`, for which the melting point was 229 °C.

`CCOC(=O)c1c(-c2ccccc2)csc1NC(=O)C(Cl)Cl` displayed a melting point of 92 to 93 °C. In the case of `O=C1/C(=N/Nc2cccc(C(F)(F)F)c2)C(C(F)(F)F)=NN1c1ccccc1` it was 160 °C; in that of `NNCCO`, -70 °C.

On to `N=C1C=C(NC(=O)c2ccccc2)/C(=N/C(=O)c2ccccc2)C=C1NC(=O)c1ccccc1`, for which the melting point was over 330 °C. The value for `CC(C)CSCC(C)C` was -106 °C; that for `COc1cc2c(c3oc(=O)c4c(c13)CCOC4=O)C1C=COC1O2` (stereo not given) was 245 °C. The compound `C=C1CCCCC1` gave a melting point of -107 °C. The value for `COc1cc2c(cc1OC)C(C#N)N(C(=O)c1ccccc1)CC2` (stereo not given) was 214 to 217 °C; that for `O=c1c(N2CCCC2)c(N2CCOCC2)c1=O` was 251 to 254 °C. Turning to `N#CCc1cccc(CC#N)c1F`, the melting point lay within 75 to 77 °C. The value for `CCCCCCCCCCCC(=O)N(C)CC(=O)O` was 44 to 48 °C; that for `Nc1ccc(Nc2ccc(N)c3c2C(=O)c2ccccc2C3=O)c2c1C(=O)c1ccccc1C2=O` was 275 °C; that for `O=c1nc2ccccc2nc(C(F)(F)F)c1NNc1ccc(Cl)cc1` was 151 °C.

Compound `COC(=O)C(Cl)C(C)=O` (stereo not given) displayed a melting point of -33 °C.
